According to US10617710B2, “Agent for sedating response to external stimulation in skin and method for sedating that response” (Shiseido Company, Ltd, priority 2014, dated 2020):

Test system: CD39 gene expression
Experiment: CD39 expression promoting effect in human Langerhans cell-like cells (THP-1) under dexamethasone stress, RT-PCR
Format: cell-based
Conditions: THP-1 cells, 10 nM dexamethasone added, versus dexamethasone non-addition group
Description: THP-1 cells (American Type Culture Collection, VA, USA) were used as a substitute for human Langerhans cells. Approximately 200,000 THP-1 cells were cultured to confluence in RPMI1640 medium containing 10% FBS. Following culturing, stress hormone in the form of 10 nM dexamethasone was added followed by the respective addition of 0.1% polyoxyethylene (POE) 14/polyoxypropylene (POP) 7 random copolymer dimethyl ether (A), 0.01% of a 2% aqueous solution of sodium carboxymethyl-beta glucan (CM-Glucan, Mibelle Biochemistry) (B) and 0.1% rosewater (Bulgaria Rose Water, Toyotama International) (C). Moreover, a three-type mixture group (ABC) was added that incorporated one-third each of all three components. After culturing for 24 hours after addition, RNA was extracted using Isogen (Wako Pure Chemical Industries) followed by synthesis of cDNA using Superscript III and random primers (Invitrogen). RT-PCR was carried out with the Prism 7900HT (ABI) using SYBR Green (Invitrogen) and the primers indicated below.
During this RT-PCR, ribosomal protein S9 was used as normalization factor.

- CD39 gene expression level (RT-PCR, normalized to ribosomal protein S9): expression of CD39 decreased
SMILES: C[C@@H]1C[C@H]2[C@@H]3CCC4=CC(=O)C=C[C@]4(C)[C@@]3(F)[C@@H](O)C[C@]2(C)[C@@]1(O)C(=O)CO [dexamethasone]
